System: intraocular pressure, study eye/fellow eye
Test: Intraocular pressure with Compound 1 + sham, Compound 1 + RBZ or placebo + RBZ, months 1-3 (FIG. 2, TABLE 1)
Format: in vivo, human
Procedure: The difference in IOP was determined relative to a pre-treatment baseline (Base) at months 1, 2, and 3 (M1-M3). Intraocular pressure was determined in the study eye in millimeters of mercury (mmHg). […] The difference in IOP was determined relative to a pre-treatment Baseline at Months 1, 2, and 3. Intraocular pressure was determined in the study eye/fellow eye in mmHg.

“placebo + RBZ: a placebo combined with RBZ (ranibizumab)” was tested, and the “IOP, fellow eye” value (Baseline (pre-treatment)) was 15.8 mmHg, the “IOP, study eye” value (Baseline (pre-treatment)) was 15.2 mmHg and the “IOP, fellow eye” value (Month 1) was 15.5 mmHg. The “IOP, study eye” value (Month 1) was 15.0 mmHg, the “IOP, fellow eye” value (Month 2) was 15.5 mmHg and the “IOP, study eye” value (Month 2) was 15.0 mmHg. The “IOP, fellow eye” value (Month 3) was 15.7 mmHg and the “IOP, study eye” value (Month 3) was 15.3 mmHg.

— patent US10952992B2, “Methods of treating intraocular pressure with activators of Tie-2” (Aerpio Pharmaceuticals, Inc., priority 2015, dated 2021)
